Measurements from patent publication US20200308165A1, “Compounds as Ras Inhibitors and Use Thereof” (D.E. Shaw Research, LLC, priority 2017, published 2020).

How the values were obtained:
Ras protein [1] = target: T1, Ras protein (Homo sapiens, UniProt P01116); assay: GDPx_Icagen_IC50: SOS1-mediated guanine nucleotide exchange rate of Ras (mant-GDP); assay type: biochemical; conditions: SOS1-initiated exchange
Text: (§1) In some embodiments, the IC50 assay measures the reduction effect of a given compound on the guanine nucleotide-echange rate of Ras protein in the presence of guanine nucleotide exchange protein SOS1, which is a Ras activator. In the assay GDP-loaded Ras was first prepared in a buffer containing the compound at certain concentration and fluorescent guanine nucleotide (mant-GDP (used in Icagene assay) or mant-GTP (used in other IC50 assays). The guanine nucleotide exchange was initiated by the addition of the SOS1 and its rate was reflected in the rate of fluorescence change as a function of time, which was monitored by a reader. The experiment was repeated at different compound concentrations and the IC50 of the compound was defined as the compound concentration at which half of its maximal reduction effect on the guanine nucleotide exchange rate is achieved. In other embodiments, other Ras activator proteins may be used. Non-limiting examples of other Ras activator proteins include RasGRP (Ras guanyl-releasing protein).
Example 17. Evaluation of Biological Activities: GDPx_Icagen_ICso
as §1, with “The IC50” for “In some embodiments, the IC50”, “guanine nucleotide-exchange” for “guanine nucleotide-echange”, “Ras is” for “Ras was”, “nucleotide (mant-GDP).” for “nucleotide (mant-GDP (used in Icagene assay) or mant-GTP (used in other IC50 assays).”, “achieved.” for “achieved. In other embodiments, other Ras activator proteins may be used. Non-limiting examples of other Ras activator proteins include RasGRP (Ras guanyl-releasing protein).”

KRAS4B (wild type) = target: T2, KRAS4B (wild type) (Homo sapiens, UniProt P01116); assay: K-Ras Nucleotide Exchange Assay-384 (SOS Exchange Assay by Cytoskeleton, GTPx_Cyt_IC50); assay type: biochemical; conditions: 1 μM KRAS4B, 0.05 μM SOS1, 1.5 μM mant-GDP
T2 construct: purchased Cytoskeleton CS-RS03 (K-Ras4B); CS-SOS1-A (SOS1)
T2 sequence (P01116 1-188 isoform P01116-2): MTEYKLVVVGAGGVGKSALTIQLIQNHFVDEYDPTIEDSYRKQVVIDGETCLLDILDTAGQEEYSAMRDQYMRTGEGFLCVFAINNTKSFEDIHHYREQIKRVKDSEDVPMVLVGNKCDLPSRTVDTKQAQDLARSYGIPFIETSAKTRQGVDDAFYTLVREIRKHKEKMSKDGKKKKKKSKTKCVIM
Procedure: Example 16. Evaluation of Biological Activities: K-Ras Nucleotide Exchange Assay-384 (SOS Exchange Assay by Cytoskeleton (GTPx_Cyt_IC50))
This assay is used to evaluate inhibitors of K-ras, by monitoring the inhibition of nucleotide exchange over time, in the presence of the protein SOS.
384-well black, untreated plates (Corning 3820 with NBS or 3821 untreated) were used. K-Ras4B Protein was used, which is wild-type (Cytoskeleton #CS-RS03) with a concnetration of 5 mg/ml, or 200 μM. Human SOS1 Protein, Exchange Domain 564-1049 (Cytoskeleton # CS-SOS1-A) was used in a concentration of 3.03 mg/ml or 50 μM. Mant-GDP triethylammonium salt solution was purchased from Sigma (catalog No. 69244). 1M stock solution of Hepes was purchased from Sigma (catalog No. H9897). 1M stock solution of MgCl2 was purchased from Sigma (catalog No. M4880). CHAPS, 3% was purchased from Sigma (catalog No. C5070). Nonidet P40 was purchased from Sigma. KOH pellets were purchased from Sigma.
K-ras buffer containing 40 mM Hepes, 10 mM MgCl2, 0.05% CHAPS, 0.01% NP40 with a pH 7.5 was prepared as follows: to a Buffer base containing 4 ml 1M Hepes, 1 ml MgCl2,
93.3 ml d-H2O, pH 7.5 (with KOH pellets), 1.7 ml 3% CHAPS was added, followed by the addition of 1 ml 1% NP40.
Final Conditions of the method included 1 μM KRAS4B (wild type), 0.05 μM SOS1, 1.5 μM mant-GDP. Reagent Preparation included: thawing aliquots of KRAS, SOS, and mant-GDP; preparing 3x KRAS (3 uM) in assay buffer; preparing 3x SOS/mant-GDP (150 nM/4.5 uM) in assay buffer; and preparing 3x compounds in assay buffer.
Assay Procedure (1536) used 3.3 μl, 3x Kras, 3.3 μl 3x compound with preincubate 0 hour, and […] 3x SOS/mant-GDP. A kinetic read measuring fluorescence at 360_450 was performed for 30 min at 30 second intervals.
Reference compound SCH 54292 (reversible inhibitor) at about 100 μM was used with no preincubation. Reagents were only stable for 45 min on ice, and therefore were prepared fresh before each assay. Partial plates (up to 9 columns) were run at a time to minimize effects due to the amount of time it takes to read a whole plate. SOS/mant-GDP were added with an automated pipettor to initiate all reactions at the same time. Assay was typically performed at 0.5% solution in DMSO (compounds prepared in 1.5% DMSO initially).
Clariostar Settings were as follows. Test Name was Kras Kinetic 360-450. Basic settings of the test included Measurement type as Fluorescence (FI), and Microplate name as Corning 3820. Plate mode settings included 61 cycles, 30 second cycle time, and 10 flashes per well. Optic settings were as follows. Excitation wavelength was 360 nm. Emission wavelength was 450 nM. Excitation bandwidth was 12 nm. Emission bandwidth was 12 nm. Dichroic filter 405 was used. D6 Well(s) was used for gain adjustment. No shaking was used. General settings were as follows. Top optic was used. Settling time was 0.1 second. Reading direction was bidirectional, horizontal left to right, and bottom to top. The target temperature was 25° C.

Ras protein [2] = target: T1, Ras protein; assay: Nucleotide exchange rate IC50 assay (SOS1, mant-GDP), Example 18; assay type: biochemical
Text: as §1, with “The IC50” for “In some embodiments, the IC50”, “guanine nucleotide-exchange” for “guanine nucleotide-echange”, “Ras is” for “Ras was”, “nucleotide (mant-GDP).” for “nucleotide (mant-GDP (used in Icagene assay) or mant-GTP (used in other IC50 assays).”, “achieved.” for “achieved. In other embodiments, other Ras activator proteins may be used. Non-limiting examples of other Ras activator proteins include RasGRP (Ras guanyl-releasing protein).”

GDP-loaded K-Ras = GDP-loaded K-Ras (Homo sapiens, UniProt P01116); assay: Thermophoresis binding assay
GDP-loaded K-Ras, sequence (P01116 1-188 isoform P01116-2): as above
Procedure: The thermophoresis binding assay measures the changes in the movement of KRAS along a temperature gradient as a result of compound binding. In this assay, K-Ras is fluorescently labeled and the thermophoretic movement is measured by monitoring the fluorescence distribution inside a capillary. Compounds of varies concentrations were titrated and the fluorescence distribution signal was measured after 30 seconds or until the diffusion equilibrium is stable. The apparent binding affinity Kd is calculated by fitting the normalized fluorescence distribution values along the concentration axis.

T1 sequence (P01116 1-188 isoform P01116-2): as above

IC50 (Ras protein [1]) [µM] | IC50 (KRAS4B (wild type)) [µM] | IC50 (Ras protein [2]) [µM] | Kd (GDP-loaded K-Ras) [µM] | SMILES
21 | 500 |  |  | Cc1nnc(SCc2cc(=O)n(-c3nc4ccccc4s3)[nH]2)s1 [Compound 187, 2-(benzo[d]thiazol-2-yl)-5-(((5-methyl-1,3,4-thiadiazol-2-yl)thio)methyl)-1,2-dihydro-3H-pyrazol-3-one]
 |  | ~0.8 | 0.52 | Cc1nnc(SCc2[nH]n(-c3nc4ccccc4[nH]3)c(=O)c2C)s1 [Compound 188, 2-(1H-benzo[d]imidazol-2-yl)-4-methyl-5-(((5-methyl-1,3,4-thiadiazol-2-yl)thio)methyl)-1,2-dihydro-3H-pyrazol-3-one]
 |  | ~0.7 | 0.413 | COC(=O)c1ccc2[nH]c(-n3[nH]c(CSc4nnc(C)s4)c(C)c3=O)nc2c1 [Compound 189, methyl 2-(4-methyl-3-(((5-methyl-1,3,4-thiadiazol-2-yl)thio)methyl)-5-oxo-2,5-dihydro-1H-pyrazol-1-yl)-1H-benzo[d]imidazole-5-carboxylate]
